According to US10059667B2, “Antidiabetic compounds” (MERCK SHARP & DOHME CORP., priority 2014, dated 2018):

Target: T1, Human GPR40 (Homo sapiens (Human), UniProt O14842)
Assay: Inositol Phosphate Turnover (IP1) Assay 1, HEK cells stably expressing human GPR40, 3H-inositol SPA
Format: cell-based
Conditions: HEK cells stably expressing human GPR40, 96-well
Description: (§1) Human and mouse GPR40 stable cell-lines were generated in CHO cells stably expressing NFAT BLA (Beta-lactamase). A human GPR40 stable cell-line was generated in HEK cells stably expressing the aequorin expressing reporter. The expression plasmids were transfected using lipofectamine (Life Technologies) following manufacturer's instructions. Stable cell-lines were generated following drug selection.
The assay was performed in 96-well format. HEK cells stably expressing human GPR40 were plated to be 60-80% confluent within 72 h. After 72 h, the plates were aspirated and the cells washed with inositol-free DMEM (ICN). The wash media was replaced with 150 μL of 3H-inositol labeling media (inositol-free media containing 0.4% human albumin or 0.4% mouse albumin, 1× pen/strep antibiotics, glutamine, 25 mM HEPES to which was added 3H-myo-inositol NEN #NET114A 1 mCi/mL, 25 Ci/mmol diluted 1:150 in loading media with a final specific radioactivity of 1 μCi/150 μL). Alternatively, the human and mouse albumin can be added after the overnight labeling step before the addition of LiCl.
The assay was typically run the next day after 18 h labeling. On the day of the assay, 5 μL of 300 mM LiCl was added to all wells and incubated at 37 degrees for 20 min. 0.75 μL of each compound was added and incubated with the cells for 60 min at 37 degrees. The media was then aspirated off and the assay terminated with the addition of 60 μL 10 mM formic acid. The cells were lysed for 60 min at room temperature. 15-30 μL of lysate was mixed with 70 μL/1 mg YSi SPA beads (Amersham) in clear bottom Isoplates. The plates were shaken for 2 h at room temperature. Beads were allowed to settle and the plates were counted in the Wallac Microbeta.

T1 sequence (O14842 whole entry): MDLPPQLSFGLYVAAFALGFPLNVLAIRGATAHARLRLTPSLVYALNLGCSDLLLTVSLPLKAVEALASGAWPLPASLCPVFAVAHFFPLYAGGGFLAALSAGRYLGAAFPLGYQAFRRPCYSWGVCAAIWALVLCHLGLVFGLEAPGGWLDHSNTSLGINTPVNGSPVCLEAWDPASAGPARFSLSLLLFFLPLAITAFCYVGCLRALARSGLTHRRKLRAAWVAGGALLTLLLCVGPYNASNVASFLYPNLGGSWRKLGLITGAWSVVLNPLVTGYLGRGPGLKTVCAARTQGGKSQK

How did the EC50 turn out when `O=C(O)C[C@H](c1cccc(OC2CC3(CCN(Cc4cc(C(F)(F)F)ccc4C(F)(F)F)C3)C2)c1)C1CC1` (single isomer, unassigned) [Example 5A] was run?
Its EC50 is 4150 nM.

How did the EC50 turn out when `O=C(O)C[C@H](c1cccc(OC2CC3(CCN(Cc4cc(C(F)(F)F)ccc4C(F)(F)F)C3)C2)c1)C1CC1` (single isomer, unassigned) [Example 5B] was run?
The EC50 was 2140 nM.

How did the EC50 turn out when `COc1cc(OC2CC(COc3cccc([C@H](C4CC4)[C@H](C)C(=O)O)c3)C2)ccn1` (stereo partly shown) [Example 93] was run?
The EC50 was 181 nM.

Which EC50 does the source give for `C[C@H](C(=O)O)[C@H](c1cccc(OCC2CC(Oc3ccccc3F)C2)c1)C1CC1` (stereo partly shown) [Example 94] here?
The EC50 was 110 nM.

`C[C@H](C(=O)O)[C@H](c1cccc(OCC2CC(Oc3ccc(OC(F)F)nc3)C2)c1)C1CC1` (stereo partly shown) [Example 95] was tested. Which EC50 did it give?
Its EC50 is 1390 nM.

`COc1ncc(OC2CC(COc3cccc([C@H](C4CC4)[C@H](C)C(=O)O)c3)C2)cn1` (stereo partly shown) [Example 96] was tested. Which EC50 did it give?
Its EC50 is 8230 nM.

How did the EC50 turn out when `Cc1cc(OC2CC(COc3cccc([C@H](C4CC4)[C@H](C)C(=O)O)c3)C2)n(C)n1` (stereo partly shown) [Example 97] was run?
Its EC50 is 7240 nM.

Which EC50 does the source give for `Cc1c(OC2CC(COc3cccc([C@H](C4CC4)[C@H](C)C(=O)O)c3)C2)nn(C)c1C(F)(F)F` (stereo partly shown) [Example 100] here?
The EC50 was 560 nM.

Which EC50 does the source give for `C[C@H](C(=O)O)[C@H](c1cccc(OCC2CC(Oc3ccnn3C)C2)c1)C1CC1` (stereo partly shown) [Example 101] here?
Its EC50 is 7220 nM.

Which EC50 does the source give for `C[C@H](C(=O)O)[C@H](c1cccc(OCC2CC(Oc3ccccn3)C2)c1)C1CC1` (stereo partly shown) [Example 102] here?
Its EC50 is 643 nM.

`C[C@H](C(=O)O)[C@H](c1cccc(OCC2CC(Oc3ccccn3)C2)c1)C1CC1` (stereo partly shown) [Example 103] was tested. Which EC50 did it give?
Its EC50 is 187 nM.

How did the EC50 turn out when `COc1cc(OC2CC(COc3cccc([C@H](C4CC4)[C@H](C)C(=O)O)c3)C2)c(F)cn1` (stereo partly shown) [Example 106] was run?
Its EC50 is 54 nM.

Which EC50 does the source give for `C[C@H](C(=O)O)[C@H](c1cccc(OCC2CC(Oc3cccnc3)C2)c1)C1CC1` (stereo partly shown) [Example 109] here?
Its EC50 is 7190 nM.

Which EC50 does the source give for `C[C@H](C(=O)O)[C@H](c1cccc(OCC2CC(Oc3cccnc3)C2)c1)C1CC1` (stereo partly shown) [Example 110] here?
The EC50 was 1960 nM.

With `C[C@H](C(=O)O)[C@H](c1cccc(OCC2CC(Oc3ccnc4c3OCCO4)C2)c1)C1CC1` (stereo partly shown) [Example 111] as the compound, how does the EC50 read?
The EC50 was 3100 nM.

`CCOc1ccccc1OC1CC(COc2cccc([C@H](C3CC3)[C@H](C)C(=O)O)c2)C1` (stereo partly shown) [Example 112] was tested. Which EC50 did it give?
The EC50 was 109 nM.

With `CCOc1ccc(OC2CC(COc3cccc([C@H](C4CC4)[C@H](C)C(=O)O)c3)C2)cc1` (stereo partly shown) [Example 113] as the compound, how does the EC50 read?
The EC50 was 1210 nM.

With `C[C@H](C(=O)O)[C@H](c1cccc(OCC2CC(Oc3c(F)cccc3F)C2)c1)C1CC1` (stereo partly shown) [Example 114] as the compound, how does the EC50 read?
The EC50 was 107 nM.

How did the EC50 turn out when `C[C@H](C(=O)O)[C@H](c1cccc(OCC2CC(Oc3cc(F)ccc3F)C2)c1)C1CC1` (stereo partly shown) [Example 115] was run?
The EC50 was 110 nM.

How did the EC50 turn out when `COc1ccc(OC2CC(COc3cccc([C@H](C4CC4)[C@H](C)C(=O)O)c3)C2)cc1` (stereo partly shown) [Example 124] was run?
The EC50 was 577 nM.

For `COc1ccc(OC2CC(COc3cccc([C@H](C4CC4)[C@H](C)C(=O)O)c3)C2)cc1` (stereo partly shown) [Example 125], which EC50 is on record?
The EC50 was 565 nM.

With `COc1ccccc1OC1CC(COc2cccc([C@H](C3CC3)[C@H](C)C(=O)O)c2)C1` (stereo partly shown) [Example 128] as the compound, how does the EC50 read?
Its EC50 is 72 nM.

Which EC50 does the source give for `CCOc1cccc(OC2CC(COc3cccc([C@H](C4CC4)[C@H](C)C(=O)O)c3)C2)c1` (stereo partly shown) [Example 131] here?
The EC50 was 119 nM.

For `C[C@H](C(=O)O)[C@H](c1cccc(OCC2CC(Oc3ccccc3-c3ccccc3)C2)c1)C1CC1` (stereo partly shown) [Example 132], which EC50 is on record?
The EC50 was 150 nM.

With `C[C@H](C(=O)O)[C@H](c1cccc(OCC2CC(Oc3cccc4c3OC(C)(C)C4)C2)c1)C1CC1` (stereo partly shown) [Example 135] as the compound, how does the EC50 read?
The EC50 was 307 nM.

Which EC50 does the source give for `C[C@H](C(=O)O)[C@H](c1cccc(OCC2CC(Oc3cccc(C(F)(F)F)c3)C2)c1)C1CC1` (stereo partly shown) [Example 136] here?
The EC50 was 262 nM.

How did the EC50 turn out when `C[C@H](C(=O)O)[C@H](c1cccc(OC[C@H]2C[C@@H]2c2cccc(OC(F)(F)F)c2)c1)C1CC1` [Example 137] was run?
Its EC50 is 176 nM.

With `C[C@H](C(=O)O)[C@H](c1cccc(OC[C@H]2C[C@@H]2c2cccc(OC3CC3)c2)c1)C1CC1` [Example 138] as the compound, how does the EC50 read?
Its EC50 is 74 nM.

How did the EC50 turn out when `COc1ccc(OC)c([C@H]2C[C@@H]2COc2cccc([C@H](C3CC3)[C@H](C)C(=O)O)c2)c1` [Example 139] was run?
The EC50 was 188 nM.

For `COc1cccc([C@H]2C[C@@H]2COc2cccc([C@H](C3CC3)[C@H](C)C(=O)O)c2)c1F` [Example 140], which EC50 is on record?
Its EC50 is 225 nM.

`COc1cc(F)cc([C@H]2C[C@@H]2COc2cccc([C@H](C3CC3)[C@H](C)C(=O)O)c2)c1` [Example 141] was tested. Which EC50 did it give?
Its EC50 is 109 nM.

For `COc1ccc(F)c([C@H]2C[C@@H]2COc2cccc([C@H](C3CC3)[C@H](C)C(=O)O)c2)c1F` [Example 142], which EC50 is on record?
The EC50 was 78 nM.

With `C[C@H](C(=O)O)[C@H](c1cccc(OC[C@H]2C[C@@H]2c2cc(C(F)(F)F)ccc2Cl)c1)C1CC1` [Example 143] as the compound, how does the EC50 read?
The EC50 was 175 nM.

Which EC50 does the source give for `C[C@H](C(=O)O)[C@H](c1cccc(OC[C@H]2C[C@@H]2c2ccc(F)c(C(F)(F)F)c2)c1)C1CC1` [Example 144] here?
The EC50 was 385 nM.

How did the EC50 turn out when `C[C@H](C(=O)O)[C@H](c1cccc(OC[C@H]2C[C@@H]2c2cc(OC(F)(F)F)ccc2F)c1)C1CC1` [Example 145] was run?
Its EC50 is 223 nM.

With `C[C@H](C(=O)O)[C@H](c1cccc(OC[C@H]2C[C@@H]2c2cc(OC(F)(F)F)ccc2Cl)c1)C1CC1` [Example 146] as the compound, how does the EC50 read?
The EC50 was 111 nM.

`C[C@H](C(=O)O)[C@H](c1cccc(OC[C@H]2C[C@@H]2c2cccnc2)c1)C1CC1` [Example 147] was tested. Which EC50 did it give?
Its EC50 is 4440 nM.

With `COc1ncc([C@H]2C[C@@H]2COc2cccc([C@H](C3CC3)[C@H](C)C(=O)O)c2)cc1F` [Example 149] as the compound, how does the EC50 read?
Its EC50 is 802 nM.

Which EC50 does the source give for `COc1cncc([C@H]2C[C@@H]2COc2cccc([C@H](C3CC3)[C@H](C)C(=O)O)c2)c1` [Example 150] here?
The EC50 was 4470 nM.

With `C[C@H](C(=O)O)[C@H](c1cccc(OC[C@H]2C[C@@H]2c2cc(F)ccc2F)c1)C1CC1` [Example 151] as the compound, how does the EC50 read?
Its EC50 is 90 nM.

For `C[C@H](C(=O)O)[C@H](c1cccc(OC[C@H]2C[C@@H]2c2cc(Cl)ccc2F)c1)C1CC1` [Example 152], which EC50 is on record?
Its EC50 is 89 nM.

Which EC50 does the source give for `COc1cc(F)c([C@H]2C[C@@H]2COc2cccc([C@H](C3CC3)[C@H](C)C(=O)O)c2)cc1F` [Example 153] here?
Its EC50 is 325 nM.

With `COc1ccc([C@H]2C[C@@H]2COc2cccc([C@H](C3CC3)[C@H](C)C(=O)O)c2)c(F)c1` [Example 154] as the compound, how does the EC50 read?
Its EC50 is 544 nM.

How did the EC50 turn out when `C[C@H](C(=O)O)[C@H](c1cccc(OC[C@H]2C[C@@H]2c2cc(C(F)(F)F)ccc2C(F)(F)F)c1)C1CC1` [Example 155] was run?
The EC50 was 316 nM.

With `C[C@H](C(=O)O)[C@H](c1cccc(OC[C@H]2C[C@@H]2c2ccc(Cl)c(C(F)(F)F)c2)c1)C1CC1` [Example 156] as the compound, how does the EC50 read?
Its EC50 is 355 nM.

Which EC50 does the source give for `C[C@H](C(=O)O)[C@H](c1cccc(OC[C@H]2C[C@@H]2c2cc(C(F)(F)F)ccc2F)c1)C1CC1` [Example 157] here?
Its EC50 is 130 nM.

With `COc1ccc(Cl)c([C@H]2C[C@@H]2COc2cccc([C@H](C3CC3)[C@H](C)C(=O)O)c2)c1` [Example 158] as the compound, how does the EC50 read?
Its EC50 is 26 nM.

`COc1ccc([C@H]2C[C@@H]2COc2cccc([C@H](C3CC3)[C@H](C)C(=O)O)c2)cc1` [Example 159] was tested. Which EC50 did it give?
The EC50 was 472 nM.

Target: T1, Human GPR40
Assay: FLIPR assay, agonist-induced calcium mobilization in GPR40/CHO NFAT BLA cells
Format: cell-based
Conditions: not given
Description: as §1
FLIPR (Fluorimetric Imaging Plate Reader, Molecular Devices) assays were performed to measure agonist-induced calcium mobilization of the stable clones. For the FLIPR assay, one day before assay, GPR40/CHO NFAT BLA cells were seeded into black-wall-clear-bottom 384-well plates (Costar) at 1.4×10e4 cells/20 μL medium/well. The cells were incubated with 20 μl/well of the assay buffer (HBSS, 0.1% BSA, 20 mM HEPES, 2.5 mM probenecid, pH 7.4) containing 8 μM fluo-4, AM, 0.08% pluronic acid at room temperature for 100 minutes. Fluorescence output was measured using FLIPR. Compounds were dissolved in DMSO and diluted to desired concentrations with assay buffer. 13.3 μL/well of compound solution was added.

`O=C(O)C[C@H](c1cccc(OC2CC3(CCN(Cc4cc(C(F)(F)F)ccc4C(F)(F)F)C3)C2)c1)C1CC1` (single isomer, unassigned) [Example 5A] was tested. Which EC50 did it give?
The EC50 was 455 nM.

`O=C(O)C[C@H](c1cccc(OC2CC3(CCN(Cc4cc(C(F)(F)F)ccc4C(F)(F)F)C3)C2)c1)C1CC1` (single isomer, unassigned) [Example 5B] was tested. Which EC50 did it give?
The EC50 was 113 nM.

How did the EC50 turn out when `O=C(O)C[C@H](c1cccc(OC2CCN(Cc3cccc(C(F)(F)F)c3)C2)c1)C1CC1` (stereo partly shown) [Example 45] was run?
The EC50 was 387 nM.

`CC(c1cc(F)ccc1F)N1CC(COc2cccc([C@@H](CC(=O)O)C3CC3)c2)C1` (stereo partly shown) [Example 57] was tested. Which EC50 did it give?
The EC50 was 480 nM.
